According to patent publication US11109593B2, “Isoxazolin-5-one derivative and herbicide containing same as active ingredient” (HOKKO CHEMICAL INDUSTRY CO., LTD., priority 2017, dated 2021):

Key:
Format in all cases: in vivo
[1] = test system: Chenopodium album; assay: Test Example 4: herbicidal effect test by treatment of leave and stem in dry field farming (seven days after seeding); settings: 120 g/10a active ingredient; emulsion sprayed seven days after seeding; evaluated 14 days after treatment
Summary of the method: (§1)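 Twenty seeds per species were mixed into the top 1 cm of alluvial soil in 36 cm^2 pots; emulsions were sprayed seven days after seeding at 100 L per 10 ares (120 g active ingredient per 10 ares). Herbicidal rate (%) = {1 − treated/untreated mean dry weight} × 100, 14 days after treatment, duplicate.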

[2] = test system: southern crabgrass; assay: as above; settings: 120 g/10a active ingredient; emulsion sprayed seven days after seeding; evaluated 14 days after treatment
Summary of the method: as §1

[3] = test system: Echinochloa crus-galli; assay: as above; settings: 120 g/10a active ingredient; emulsion sprayed seven days after seeding; evaluated 14 days after treatment
Summary of the method: as §1

[4] = test system: Amaranthus viridis; assay: as above; settings: 120 g/10a active ingredient; emulsion sprayed seven days after seeding; evaluated 14 days after treatment
Summary of the method: as §1

[5] = test system: Echinochloa crus-galli; assay: Test Example 2: herbicidal effect test by treatment during growing period in paddy rice cultivation (seven days after seeding); settings: 120 g/10a active ingredient, assessed 14 days after treatment, dry weight vs untreated area
Summary of the method: (§2)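 Sow 30 seeds per species (0–1 cm) into puddled, fertilized paddy soil; keep flooded ~3 cm in greenhouse. Day 7 after seeding: drop water-diluted emulsion, 120 g a.i./10 ares. Harvest 14 d post-treatment; compare dry weight with untreated pots (duplicate).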

[6] = test system: Scirpus juncoides; assay: as above; settings: 120 g/10a active ingredient, assessed 14 days after treatment, dry weight vs untreated area
Summary of the method: as §2

[7] = test system: broad leaf weeds (Lindernia pyxidaria and Monochoria vaginalis); assay: as above; settings: 120 g/10a active ingredient, assessed 14 days after treatment, dry weight vs untreated area
Summary of the method: as §2

[8] = test system: Chenopodium album; assay: Test Example 3: herbicidal effect test by treatment of dry field farming soil (one day after seeding); settings: 120 g/10a active ingredient, evaluated 14 days after treatment
Summary of the method: (§3)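 Weeds were seeded into the upper soil layer of alluvial field soil and, one day afterwards, the soil surface was sprayed with water-diluted emulsion delivering 120 g active ingredient per 10 ares. Mean plant dry weight relative to untreated pots after 14 days gave the herbicidal rate, tested in duplicate.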

[9] = test system: southern crabgrass; assay: as above; settings: 120 g/10a active ingredient, evaluated 14 days after treatment
Summary of the method: as §3

[10] = test system: Echinochloa crus-galli; assay: as above; settings: 120 g/10a active ingredient, evaluated 14 days after treatment
Summary of the method: as §3

[11] = test system: Amaranthus viridis; assay: as above; settings: 120 g/10a active ingredient, evaluated 14 days after treatment
Summary of the method: as §3

[12] = test system: Echinochloa crus-galli; assay: Test Example 1: herbicidal effect test by treatment of rice paddy soil (immediately after seeding); settings: 120 g/10a active ingredient, dry weight vs untreated area, 14 days after treatment
Summary of the method: (§4)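 Pre-emergence paddy water application, 120 g a.i./10 ares, applied immediately post-seeding into ~3 cm flood; glasshouse; duplicate pots; dry weight at 14 d → % inhibition = (1 − treated/untreated) × 100.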

[13] = test system: Scirpus juncoides; assay: as above; settings: 120 g/10a active ingredient, dry weight vs untreated area, 14 days after treatment
Summary of the method: as §4

[14] = test system: broad leaf weeds (Lindernia pyxidaria and Monochoria vaginalis); assay: as above; settings: 120 g/10a active ingredient, dry weight vs untreated area, 14 days after treatment
Summary of the method: as §4

SMILES	herbicidal effect (herbicidal rate), Chenopodium album [1] [%]	herbicidal effect (herbicidal rate), southern crabgrass [2] [%]	herbicidal effect (herbicidal rate), Echinochloa crus-galli [3] [%]	herbicidal effect (herbicidal rate), Amaranthus viridis [4] [%]	Herbicidal rate (%) Echinochloa crus-galli [5] [%]	Herbicidal rate (%) Scirpus juncoides [6] [%]	Herbicidal rate (%) Lindernia pyxidaria [7] [%]	Herbicidal rate (%) Monochoria vaginalis [7] [%]	herbicidal rate, Chenopodium album [8] [%]	herbicidal rate, southern crabgrass [9] [%]	herbicidal rate, Echinochloa crus-galli [10] [%]	herbicidal rate, Amaranthus viridis [11] [%]	Herbicidal rate (%) Echinochloa crus-galli [12] [%]	Herbicidal rate (%) Scirpus juncoides [13] [%]	Herbicidal rate (%) Lindernia pyxidaria [14] [%]	Herbicidal rate (%) Monochoria vaginalis [14] [%]
CCOC(=O)N(c1ccccc1Cc1c(C)n(C(C)(C)C)oc1=O)S(=O)(=O)C(F)(F)F [Compound 1-604]	40	90	90	40	90	90	90	90	90	90	90	90	90	90	90	90
CCOC(=O)N(c1ccccc1Cc1c(C)n(C(C)CC)oc1=O)S(=O)(=O)C(F)(F)F (centres unmarked) [Compound 1-605]	40	90	90	40	90	90	90	90	90	90	90	90	90	90	90	90
CCOC(=O)N(c1ccccc1Cc1c(C)n(CC(C)(C)C)oc1=O)S(=O)(=O)C(F)(F)F [Compound 1-609]	40	90	90	40	90	90	90	90	90	90	90	90	90	90	90	90
CCOC(=O)N(c1ccccc1Cc1c(C)n(CC(C)CC)oc1=O)S(=O)(=O)C(F)(F)F (centres unmarked) [Compound 1-611]	50	70	80	60	100	90	70	80	40	70	70	40	100	90	90	80
CCOC(=O)N(c1ccccc1Cc1c(C)n(C(C)COC)oc1=O)S(=O)(=O)C(F)(F)F (centres unmarked) [Compound 1-615]	40	90	90	40	90	90	90	90	90	90	90	90	90	90	90	90
CCOC(=O)N(c1ccccc1Cc1c(C)n(CCSC)oc1=O)S(=O)(=O)C(F)(F)F [Compound 1-620]	40	90	90	40	90	90	90	90	90	90	90	90	90	90	90	90
CCOC(=O)N(c1ccccc1Cc1c(C)n(C(C)c2ccccc2)oc1=O)S(=O)(=O)C(F)(F)F (centres unmarked) [Compound 1-626]	40	90	90	40	90	90	90	90	90	90	90	90	90	90	90	90
CCC(C)n1oc(=O)c(Cc2ccccc2N(C(=O)OC(C)C)S(=O)(=O)C(F)(F)F)c1C (centres unmarked) [Compound 1-642]	40	90	90	40	90	90	90	90	90	90	90	90	90	90	90	90
